Data reported in the OligoGym collection.
Several values for one entry are separate records, joined by “and”; a condition that tells them apart may be missing. Equal values may be shown once. After the bases stand the sugars from the 5' end (letter, count) and the backbone: PS all phosphorothioate, else s phosphorothioate and o phosphodiester by linkage. Methylation of C is not given here. e = 2'-O-(2-methoxyethyl) (MOE); k = constrained ethyl (cEt); d = 2'-deoxy (DNA)

Target: SOD1
Details: ASO

TCATGAACATGGAATCCATG (sugars e5 d10 e5, PS)
target mRNA inhibition (HepG2, 5 µM): 24% and 19%

GAGGACTGCAACGGAAACCC (sugars e5 d10 e5, PS)
target mRNA inhibition (HepG2, 4 µM): 24%

CAGTGTTTAATGTTTA (sugars kekeddddddddekek, linkages s1 o3 s8 o1 s2)
target mRNA inhibition (A431, 0.12 µM): 19% | target mRNA inhibition (A431, 0.6 µM): 18% | target mRNA inhibition (A431, 3 µM): 36% | target mRNA inhibition (A431, 15 µM): 55% | target mRNA inhibition (HepG2, 0.222 µM): 50% | target mRNA inhibition (HepG2, 0.667 µM): 67% | target mRNA inhibition (HepG2, 2 µM): 81% | target mRNA inhibition (HepG2, 6 µM): 86%

TTTAATGTTTATCAGG (sugars kekeddddddddekek, linkages s1 o3 s8 o1 s2)
target mRNA inhibition (A431, 0.12 µM): 15% | target mRNA inhibition (A431, 0.6 µM): 44% | target mRNA inhibition (A431, 3 µM): 73% | target mRNA inhibition (A431, 15 µM): 85% | target mRNA inhibition (HepG2, 0.222 µM): 73% | target mRNA inhibition (HepG2, 0.667 µM): 90% | target mRNA inhibition (HepG2, 2 µM): 93% | target mRNA inhibition (HepG2, 6 µM): 97%

AATACCCATCTGTGATT (sugars e3 k2 d7 k2 e3, PS)
target mRNA inhibition (HepG2, 3 µM): 7%

TAATGTTTATCAGGAT (sugars ekddddddddekekee, linkages s1 o1 s8 o3 s2)
target mRNA inhibition (A431, 0.12 µM): 1% | target mRNA inhibition (A431, 0.6 µM): 9% | target mRNA inhibition (A431, 3 µM): 22% | target mRNA inhibition (A431, 15 µM): 46%

TTTCTACAGCTAGCAGG (sugars e2 k2 d8 k2 e3, PS)
target mRNA inhibition (HepG2, 0.1875 µM): 16% | target mRNA inhibition (HepG2, 0.75 µM): 58% | target mRNA inhibition (HepG2, 3 µM): 78% | target mRNA inhibition (HepG2, 4 µM): 76% | target mRNA inhibition (HepG2, 12 µM): 87%

GCCACGCCGAGGTCCTGGTT (sugars e5 d10 e5, PS)
target mRNA inhibition (HepG2, 4 µM): 38%

GCCTCGCCCACTCTGGCCCC (sugars e5 d10 e5, PS)
target mRNA inhibition (HepG2, 4 µM): 37%

CCCATCTGTGATTTAAG (sugars e2 k2 d8 k2 e3, PS)
target mRNA inhibition (HepG2, 5 µM): 49%

GGTCATTGAAACAGACA (sugars e3 k2 d7 k2 e3, PS)
target mRNA inhibition (HepG2, 3 µM): 11%

CTTTGGCCCACCGTGTT (sugars e3 k2 d7 k2 e3, PS)
target mRNA inhibition (HepG2, 3 µM): 41%

AGTGTTTAATGTTTATC (sugars e2 k2 d9 k2 e2, PS)
target mRNA inhibition (HepG2, 0.1875 µM): 35% | target mRNA inhibition (HepG2, 0.75 µM): 66% | target mRNA inhibition (HepG2, 3 µM): 83% | target mRNA inhibition (HepG2, 4 µM): 75% | target mRNA inhibition (HepG2, 5 µM): 80% | target mRNA inhibition (HepG2, 12 µM): 84% and 87%

TAGCAGGATAACAGATG (sugars e3 k2 d7 k2 e3, PS)
target mRNA inhibition (HepG2, 3 µM): 34%

CCTCATAATAAGTGCCA (sugars e2 k2 d8 k2 e3, PS)
target mRNA inhibition (HepG2, 5 µM): 29%

CACCGTGTTTTCTGGATAGA (sugars e5 d10 e5, PS)
target mRNA inhibition (HepG2, 5 µM): 24% and 11%

CAGCTAGCAGGATAACA (sugars e2 k2 d9 k2 e2, PS)
target mRNA inhibition (HepG2, 4 µM): 61%

CGACTACTTTATAGGCC (sugars e3 k2 d7 k2 e3, PS)
target mRNA inhibition (HepG2, 3 µM): 12%

AGTGTTTAATGTTTAT (sugars kekeddddddddekek, linkages s1 o3 s8 o1 s2)
target mRNA inhibition (A431, 0.12 µM): 2% | target mRNA inhibition (A431, 0.6 µM): 31% | target mRNA inhibition (A431, 3 µM): 47% | target mRNA inhibition (A431, 15 µM): 61%

TACAGGTCATTGAAACA (sugars e2 k2 d9 k2 e2, PS)
target mRNA inhibition (HepG2, 5 µM): 38%

AGTGTTTAATGTTTATCA (sugars e5 d8 e5, linkages s1 o3 s9 o2 s2)
target mRNA inhibition (A431, 0.12 µM): 2% | target mRNA inhibition (A431, 0.6 µM): 35% | target mRNA inhibition (A431, 3 µM): 52% | target mRNA inhibition (A431, 15 µM): 67% | target mRNA inhibition (HepG2, 0.222 µM): 33% | target mRNA inhibition (HepG2, 0.667 µM): 58% | target mRNA inhibition (HepG2, 2 µM): 74% | target mRNA inhibition (HepG2, 6 µM): 86%
